Laboratory results from PubChem BioAssay AID1963868 (Molecular Pharmacology Branch, DTP, NCI, 2024).

System: KRAS PDC tumor spheroids (HUVEC+MSC), viability
Assay: Anticancer human tumor 254851-301-R-J1-PDC patient-derived colon carcinoma cell line growth inhibition [KRAS2]
Conditions: for IC50: curve of first compound; for viability, T/C: stronger effect = lower value
In short: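 Combination screen of spheroid viability in tumor-cell co-cultures with endothelial (HUVEC) and mesenchymal stem cell stroma. Each agent was tested in half-log dilutions, topping at clinical Cmax or at 10 microM without a known Cmax.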

[1] = second compound 0.1 µM, first compound 0.0316 µM
[2] = second compound 0.1 µM, first compound 0.1 µM
[3] = second compound 0.1 µM, first compound 0.316 µM
[4] = second compound 0.1 µM, first compound 1 µM
[5] = second compound 0.1 µM, first compound 3.16 µM
[6] = second compound 0.1 µM, first compound 10 µM
[7] = second compound 0.316 µM, first compound 0.0316 µM
[8] = second compound 0.316 µM, first compound 0.1 µM
[9] = second compound 0.316 µM, first compound 0.316 µM
[10] = second compound 0.316 µM, first compound 1 µM
[11] = second compound 0.316 µM, first compound 3.16 µM
[12] = second compound 0.316 µM, first compound 10 µM
[13] = second compound 1 µM, first compound 0.0316 µM
[14] = second compound 1 µM, first compound 0.1 µM
[15] = second compound 1 µM, first compound 0.316 µM
[16] = second compound 1 µM, first compound 1 µM
[17] = second compound 1 µM, first compound 3.16 µM
[18] = second compound 1 µM, first compound 10 µM
[19] = second compound 3.16 µM, first compound 0.0316 µM
[20] = second compound 3.16 µM, first compound 0.1 µM
[21] = second compound 3.16 µM, first compound 0.316 µM
[22] = second compound 3.16 µM, first compound 1 µM
[23] = second compound 3.16 µM, first compound 3.16 µM
[24] = second compound 3.16 µM, first compound 10 µM
[25] = second compound 10 µM, first compound 0.0316 µM
[26] = second compound 10 µM, first compound 0.1 µM
[27] = second compound 10 µM, first compound 0.316 µM
[28] = second compound 10 µM, first compound 1 µM
[29] = second compound 10 µM, first compound 3.16 µM
[30] = second compound 10 µM, first compound 10 µM
[31] = second compound 0.1 µM, first compound 0.01 µM
[32] = second compound 0.316 µM, first compound 0.01 µM
[33] = second compound 1 µM, first compound 0.01 µM
[34] = second compound 3.16 µM, first compound 0.01 µM
[35] = second compound 10 µM, first compound 0.01 µM
[36] = second compound 0.1 µM, first compound 0.00316 µM
[37] = second compound 0.316 µM, first compound 0.00316 µM
[38] = second compound 1 µM, first compound 0.00316 µM
[39] = second compound 3.16 µM, first compound 0.00316 µM
[40] = second compound 10 µM, first compound 0.00316 µM
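Further: spheroids exposed to compounds for seven days before readout.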
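Wherever viability, T/C is given: 100% = DMSO vehicle control luminescence of the spheroids.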

Row | Compound | IC50 (second compound 0.1 µM) [nM] | IC50 (second compound 0.316 µM) [nM] | IC50 (second compound 1 µM) [nM] | IC50 (second compound 3.16 µM) [nM] | IC50 (second compound 10 µM) [nM] | viability, T/C [1] [%] | viability, T/C [2] [%] | viability, T/C [3] [%] | viability, T/C [4] [%] | viability, T/C [7] [%] | viability, T/C [8] [%] | viability, T/C [9] [%] | viability, T/C [10] [%] | viability, T/C [13] [%] | viability, T/C [14] [%] | viability, T/C [15] [%] | viability, T/C [19] [%] | viability, T/C [20] [%] | viability, T/C [25] [%] | viability, T/C [26] [%] | further results
1 | CC(C)NCC(C(=O)N1CCN(c2ncnc3c2C(C)CC3O)CC1)c1ccc(Cl)cc1 (stereo not given) + CNCc1ccccc1-c1csc(C(C)Nc2nc(C)nc3cc(OC)c(OC)cc23)c1 | > 10000 | > 10000 | > 10000 | > 10000 | < 31.6 | 105 | 99.1 | 93.3 | 92 | 107 | 111 | 93.4 | 89.5 | 94.8 | 94 | 80.3 | 78.6 | 67.8 | 0.18 | 0.19 | viability, T/C [5]: 99.1%; viability, T/C [6]: 92.1%; viability, T/C [11]: 95.6%; viability, T/C [12]: 93.5%; viability, T/C [16]: 84.5%; viability, T/C [17]: 83.2%; viability, T/C [18]: 89.4%; viability, T/C [21]: 56%; viability, T/C [22]: 73.1%; viability, T/C [23]: 56.5%; viability, T/C [24]: 52.6%; viability, T/C [27]: 0.17%; viability, T/C [28]: 0.17%; viability, T/C [29]: 0.16%; viability, T/C [30]: 0.22%
2 | CC1COCCN1c1cc(-c2ccnn2C)c2ccnc(-c3ccn[nH]3)c2n1 (stereo not given) + CNCc1ccccc1-c1csc(C(C)Nc2nc(C)nc3cc(OC)c(OC)cc23)c1 | 278 | 217 | 252 | < 10 | < 10 | 103 | 60.1 | 50.7 | 36 | 93.9 | 64.4 | 42.9 | 34.3 | 93.4 | 70.4 | 44.9 | 35.2 | 31.2 | 0.08 | 0.07 | viability, T/C [31]: 107%; viability, T/C [5]: 20.1%; viability, T/C [32]: 91.9%; viability, T/C [11]: 25.9%; viability, T/C [33]: 95.5%; viability, T/C [16]: 31%; viability, T/C [17]: 24.1%; viability, T/C [34]: 44.1%; viability, T/C [21]: 14.6%; viability, T/C [22]: 26.8%; viability, T/C [23]: 17%; viability, T/C [35]: 0.08%; viability, T/C [27]: 0.99%; viability, T/C [28]: 0.07%; viability, T/C [29]: 0.12%
3 | CCN1CCN(Cc2ccc(Nc3ncc(F)c(-c4cc(F)c5nc(C)n(C(C)C)c5c4)n3)nc2)CC1 + CNCc1ccccc1-c1csc(C(C)Nc2nc(C)nc3cc(OC)c(OC)cc23)c1 | 661 | 514 | 489 | < 3.16 | < 3.16 | 76.8 | 69.1 | 70.9 | 40.4 | 84 | 63.1 | 59.9 | 41 | 81 | 62.6 | 63.1 | 26.4 | 21.7 | 0.09 | 0.06 | viability, T/C [36]: 91.4%; viability, T/C [31]: 94.5%; viability, T/C [37]: 110%; viability, T/C [32]: 86.2%; viability, T/C [38]: 83.4%; viability, T/C [33]: 83.6%; viability, T/C [16]: 35.8%; viability, T/C [39]: 42.2%; viability, T/C [34]: 35.1%; viability, T/C [21]: 17.9%; viability, T/C [22]: 14.7%; viability, T/C [40]: 0.07%; viability, T/C [35]: 0.09%; viability, T/C [27]: 0.07%; viability, T/C [28]: 0.11%
4 | CCNC(=O)CC1N=C(c2ccc(Cl)cc2)c2cc(OC)ccc2-n2c(C)nnc21 (stereo not given) + CNCc1ccccc1-c1csc(C(C)Nc2nc(C)nc3cc(OC)c(OC)cc23)c1 | > 10000 | > 10000 | > 10000 | < 31.6 | < 31.6 | 106 | 91.1 | 90.4 | 99.1 | 103 | 111 | 98.3 | 92.9 | 90.4 | 101 | 92.2 | 44.8 | 43.3 | 0.08 | 0.08 | viability, T/C [5]: 96%; viability, T/C [6]: 78.6%; viability, T/C [11]: 92.4%; viability, T/C [12]: 81.9%; viability, T/C [16]: 100%; viability, T/C [17]: 92.1%; viability, T/C [18]: 73.8%; viability, T/C [21]: 38%; viability, T/C [22]: 31.3%; viability, T/C [23]: 34.4%; viability, T/C [24]: 31%; viability, T/C [27]: 0.08%; viability, T/C [28]: 0.08%; viability, T/C [29]: 0.07%; viability, T/C [30]: 0.45%
5 | Cn1nccc1Nc1nccc(-c2cc3c(s2)C(C)(C)N(CCN2CCOCC2)C3=O)n1 + CNCc1ccccc1-c1csc(C(C)Nc2nc(C)nc3cc(OC)c(OC)cc23)c1 | 2080 | 2500 | 1610 | < 31.6 | < 31.6 | 106 | 97.4 | 99.6 | 89.8 | 90.7 | 94.5 | 86.7 | 81.3 | 95.4 | 106 | 93.3 | 25.9 | 51 | 0.09 | 0.11 | viability, T/C [5]: 27.4%; viability, T/C [6]: 3.87%; viability, T/C [11]: 42%; viability, T/C [12]: 4.06%; viability, T/C [16]: 77.4%; viability, T/C [17]: 11.2%; viability, T/C [18]: 3.35%; viability, T/C [21]: 58%; viability, T/C [22]: 24.2%; viability, T/C [23]: 0.16%; viability, T/C [24]: 0.12%; viability, T/C [27]: 0.08%; viability, T/C [28]: 0.06%; viability, T/C [29]: 0.06%; viability, T/C [30]: 0.09%
6 | Cn1ncnc1[C@H]1c2n[nH]c(=O)c3cc(F)cc(c23)N[C@@H]1c1ccc(F)cc1 + CNCc1ccccc1-c1csc(C(C)Nc2nc(C)nc3cc(OC)c(OC)cc23)c1 | > 100 | > 100 | > 100 | > 100 | < 0.316 | 95.6 | 93.6 |  |  | 94.5 | 92.5 |  |  | 86.9 | 95.2 |  | 67.9 | 63.6 | 0.22 | 0.23 | viability, T/C (second compound 0.1 µM, first compound 0.000316 µM): 94.9%; viability, T/C (second compound 0.1 µM, first compound 0.001 µM): 90.7%; viability, T/C [36]: 92.4%; viability, T/C [31]: 96.9%; viability, T/C (second compound 0.316 µM, first compound 0.000316 µM): 90.6%; viability, T/C (second compound 0.316 µM, first compound 0.001 µM): 95.6%; viability, T/C [37]: 98.8%; viability, T/C [32]: 85.4%; viability, T/C (second compound 1 µM, first compound 0.000316 µM): 101%; viability, T/C (second compound 1 µM, first compound 0.001 µM): 97.8%; viability, T/C [38]: 93.9%; viability, T/C [33]: 84%; viability, T/C (second compound 3.16 µM, first compound 0.000316 µM): 66.3%; viability, T/C (second compound 3.16 µM, first compound 0.001 µM): 65%; viability, T/C [39]: 64.3%; viability, T/C [34]: 63.7%; viability, T/C (second compound 10 µM, first compound 0.000316 µM): 0.23%; viability, T/C (second compound 10 µM, first compound 0.001 µM): 0.23%; viability, T/C [40]: 0.25%; viability, T/C [35]: 0.21%
